PMC12931196, “Vm–MSI: a Vancomycin–Antimicrobial Peptide Conjugate Combating Resistant Bacteria and Broadening the Antimicrobial Spectrum” (Advanced Science, 2025)
In brackets after ≈: the same amount, converted by molar mass. Several values for one entry are separate records, joined by “and”; a condition that tells them apart may be missing. Equal entries are not always repeated.

Columns and labels:
MDR P. aeruginosa 5 = experiment: microbe, parasite or virus in culture; settings: Pseudomonas aeruginosa, 18 h
[1] = test system: VRSA 52, E. coli ATCC25922, and MDR P. aeruginosa 5; experiment: Crystalline violet biofilm inhibition and eradication assays; format: cell-based; settings: 0.5-8 µM; three strains
Experimental: The mixture was incubated in a 96‐well plate for 48 h. Subsequent steps, including washing, fixation, staining, and OD measurement, were performed as described in the biofilm eradication assay.

MRSA ATCC43300 = experiment: microbe, parasite or virus in culture; settings: Staphylococcus aureus, 18 h
E. faecalis ATCC29212 = experiment: microbe, parasite or virus in culture; settings: Enterococcus faecalis, ATCC29212, 18 h
S. aureus CMCC26003 [2] = experiment: Antimicrobial resistance development assay; format: cell-based; settings: S. aureus CMCC26003 cultured at sub‐MIC
E. coli CMCC44102 = experiment: microbe, parasite or virus in culture; settings: Escherichia coli, CMCC44102, 18 h
S. typhimurium ATCC14028 = experiment: microbe, parasite or virus in culture; settings: Salmonella enterica, 18 h
K. pneumoniae 9883 = experiment: microbe, parasite or virus in culture; settings: Klebsiella pneumoniae, 9883, 18 h
C. perfringens ATCC13124 = experiment: microbe, parasite or virus in culture; settings: Clostridium perfringens, ATCC13124, 18 h
13 bacterial strains = experiment: GM of MIC from tested bacterial strains (Table S2); format: cell-based; settings: 13 strains of Table S2; read-out: GM: geometric mean of MIC from tested bacterial strains
Experimental: (§1) The 2 fold broth microdilution method was performed following previously established protocols.^[ [65], [66] ^] A total of 29 strains of human pathogenic microorganisms (11 Gram‐positive and 18 Gram‐negative) were included in the assay. Standard strains were maintained in our laboratory, and clinical isolates were obtained from the Fourth Affiliated Hospital of Soochow University. […] Gradient dilutions of the drugs (vancomycin, AMPs, and vancomycin‐AMP conjugates) were prepared in 96‐well plates, with 50 µL of each drug solution added per well. For the vancomycin and AMP mixture, 25 µL of vancomycin was combined with 25 µL of AMP at the corresponding monomer gradient concentration, resulting in a total volume of 50 µL. […] Following incubation, bacterial growth was assessed by measuring absorbance at 600 nm. The MIC was defined as the lowest concentration at which no bacterial growth was detected.

P. aeruginosa ATCC27853 = experiment: microbe, parasite or virus in culture; settings: Pseudomonas aeruginosa, ATCC27853, 18 h
S. aureus 15772 = experiment: microbe, parasite or virus in culture; settings: Staphylococcus aureus, 15772, 18 h
[3] = test system: biofilm‐resident bacteria, including VRSA, E. coli, and MDR P. aeruginosa; experiment: Biofilm resident bacteria assay; settings: 1-8 µM, 24 h
[4] = test system: S. aureus CMCC26003 persister cells; experiment: Anti‐persister cells assay; settings: 4 µM, 48 h, after 20× MIC ciprofloxacin for 8 h
[5] = test system: VRSA 52 and E. coli ATCC25922; experiment: ROS fluorescent probe assay (DCFH‐DA); format: cell-based; settings: DCFH‐DA 10 µM, 1 h
Experimental: In accordance with the experimental methods described in previous literature,^[ [42] ^] […] The DCFH‐DA probe (Sigma‐Aldrich, US) was then added at a final concentration of 10 µM, and the mixture was incubated for 30 min at 37 °C, protected from light. After incubation, the samples were centrifuged to remove residual DCFH‐DA. The stained bacterial solution was transferred to a 96‐well black plate and mixed with varying concentrations of drugs (vancomycin, MSI‐78, and Vm‐MSI). Polymyxin B was used as a positive control, while PBS buffer served as a negative control. The plates were incubated at 37 °C for 1 h, protected from light. Finally, fluorescence was recorded using a Tecan Infinite M1000 PRO microplate reader (Tecan, Switzerland) with an excitation wavelength of 488 nm and an emission wavelength of 525 nm.

MDR A. baumannii 1 = experiment: microbe, parasite or virus in culture; settings: Acinetobacter baumannii, 18 h
S. aureus CMCC26003 [6] = experiment: Antimicrobial blockade experiment using D‐Ala‐D‐Ala; format: cell-based; settings: D‐Ala‐D‐Ala 0 to 128 µg mL^−1
Excerpt: In accordance with the experimental methods described in previous literature,^[ [42] ^]

S. flexneri CMCC51571 = experiment: MIC, 2 fold broth microdilution; format: cell-based; settings: Shigella flexneri, MH broth, 37 °C, 18 h, OD600, read-out: MIC
Experimental: as §1

B. cereus CMCC63301 = experiment: MIC, 2 fold broth microdilution; format: cell-based; settings: Bacillus cereus, MH broth, 37 °C, 18 h, OD600, read-out: MIC
Experimental: as §1

S. flexneri ATCC12022 = experiment: MIC, 2 fold broth microdilution; format: cell-based; settings: Shigella flexneri, MH broth, 37 °C, 18 h, OD600, read-out: MIC
Experimental: as §1

[7] = test system: V. parahemolyticus ATCC17802; experiment: MIC, 2 fold broth microdilution; format: cell-based; settings: MH broth, 37 °C, 18 h, OD600, read-out: MIC
Experimental: as §1

P. aeruginosa 60357 = experiment: MIC, 2 fold broth microdilution; format: cell-based; settings: Pseudomonas aeruginosa, MH broth, 37 °C, 18 h, OD600, read-out: MIC
Experimental: as §1

P. aeruginosa 52097 = experiment: MIC, 2 fold broth microdilution; format: cell-based; settings: Pseudomonas aeruginosa, MH broth, 37 °C, 18 h, OD600, read-out: MIC
Experimental: as §1

P. aeruginosa CMCC10104 = experiment: MIC, 2 fold broth microdilution; format: cell-based; settings: Pseudomonas aeruginosa, MH broth, 37 °C, 18 h, OD600, read-out: MIC
Experimental: as §1

S. typhimurium CICC21483 = experiment: MIC, 2 fold broth microdilution; format: cell-based; settings: Salmonella enterica, MH broth, 37 °C, 18 h, OD600, read-out: MIC
Experimental: as §1

S. aureus CMCC26003 [8] = experiment: Bacterial killing kinetics; settings: 4 µM, sampled 0-180 min

CN[C@H](CC(C)C)C(=O)N[C@H]1C(=O)N[C@@H](CC(N)=O)C(=O)N[C@H]2C(=O)N[C@H]3C(=O)N[C@H](C(=O)N[C@H](C(=O)O)c4cc(O)cc(O)c4-c4cc3ccc4O)[C@H](O)c3ccc(c(Cl)c3)Oc3cc2cc(c3O[C@@H]2O[C@H](CO)[C@@H](O)[C@H](O)[C@H]2O[C@H]2C[C@](C)(N)[C@H](O)[C@H](C)O2)Oc2ccc(cc2Cl)[C@H]1O [Vm, vancomycin]
MIC (MDR P. aeruginosa 5): > 67.3 µM
anti‐biofilm activity (inhibition and eradication) [1]: no noticeable anti‐biofilm activity
MIC (MRSA ATCC43300): 3.16 µM and 4.69 µg/mL
MIC (E. faecalis ATCC29212): > 67.3 µM and > 100 µg/mL
change of MIC over 20 generations (S. aureus CMCC26003 [2]): four‐fold increase
MIC (E. coli CMCC44102): > 67.3 µM
MIC (S. typhimurium ATCC14028): > 67.3 µM and > 100 µg/mL
MIC (K. pneumoniae 9883): > 67.3 µM and > 100 µg/mL
MIC (C. perfringens ATCC13124): 25.2 µM (≈ 36.6 µg/mL)
MIC (13 bacterial strains): 70 µg/mL (≈ 48.3 µM)
MIC (P. aeruginosa ATCC27853): > 67.3 µM and > 100 µg/mL
MIC (S. aureus 15772): > 67.3 µM and > 100 µg/mL
biofilm‐resident bactericidal effect [3]: no significant biofilm‐resident bactericidal effect
reduction in the number of persister cells [4]: one‐order reduction
intracellular ROS production [5]: did not induce ROS production
MIC (MDR A. baumannii 1): > 67.3 µM
fold increase in the MIC value on exogenous addition of D‐Ala‐D‐Ala (S. aureus CMCC26003 [6]): > 25 fold
MIC (S. flexneri CMCC51571): > 67.3 µM
MIC (B. cereus CMCC63301): 50.5 µM (≈ 73.2 µg/mL)
MIC (S. flexneri ATCC12022): 50.5 µM (≈ 73.2 µg/mL)
MIC [7]: 50.5 µM (≈ 73.2 µg/mL)
MIC (P. aeruginosa 60357): > 67.3 µM
MIC (P. aeruginosa 52097): > 67.3 µM
MIC (P. aeruginosa CMCC10104): > 67.3 µM
MIC (S. typhimurium CICC21483): > 67.3 µM
time to complete eradication of all viable bacteria (S. aureus CMCC26003 [8]): > 180 min
